Assay results published in US20220144809A1, “COMPOUNDS AND METHODS FOR THE TARGETED DEGRADATION OF ANDROGEN RECEPTOR AND ASSOCIATED METHODS OF USE” (Arvinas Operations, Inc., priority 2020, published 2022).

Test system: Androgen Receptor (AR)
Experiment: Androgen Receptor ELISA assay (AR degradation in LNCaP and/or VCaP cells)
Assay type: cell-based
Conditions: degradation of AR, 5 hours incubation, R1881 in media
Protocol: Assay for Testing AR Degradation Driven by Compounds of the Present Disclosure.
Androgen Receptor ELISA Assay. Compounds were evaluated in the following assay in LNCaP and/or VCaP cells utilizing similar protocols. The protocols used with VCaP cells are described below. The androgen receptor ELISA assay was performed using PathScan AR Sandwich ELISA (Cell Signaling Catalog#12850) according to the following assay steps.
VCaP cells were seeded at 40,000 cells/well at a volume of 100 μL/well in VCaP assay medium [Phenol red free RPMI (Gibco Cat#11835-030); 5% Charcoal Stripped (Dextran treated) FBS (Omega Scientific, Cat#FB-04); 1% penstrep (Life Technologies, Gibco Cat#: 10378-016)] in Corning 3904 plates. The cells were grown for a minimum of 3 days.
First, cells were dosed with compounds diluted in […]—in a polypropylene plate avoiding the use of outer columns according to the following protocol: (1)(i) 1000× stock plate in DMSO was made; (ii) 20 mM stock diluted 1/6.7 with DMSO (5 μL+28.3 μL DMSO)=3 mM into row H; (iii) serial dilutions in ½ log doses (10 μL of bifunctional compound+20 μL DMSO) was performed from row H towards row B with row A being reserved for DMSO; (iv) 7 doses total (final concentration in this 1000× plate will be 3 mM, 1 mM, 333 μM, 111 μM, etc). (2)(i) A 10× stock plate in media was made; (ii) 2.5 μL of the 1000× stock was trasnferred to a new 10× stock plate (use 12 channel pipet, start at A (DMSO control) work thru H. When 247.5 μL of media was added to this plate, it served as a 10× stock; (iii) made media+1 nM R1881 for making 10× stock plate; (iv) added 247.5 μL of media with 1 nM R1881 to each well of the 10× stock plate, mix.
Then 22 μL of 10× stock was added to cells and incubated for 5 hours. 1× Cell Signaling Cell lysis buffer was made (Catalogue #9803; comes with the kit) to have […], and was kept on ice. Media was aspirated, and 100 μL 1× cell lysis buffer/well was added. The cells were placed on a shaker located in a cold room for 10 minutes and shaken at speed 7. The lysate mixture was mix and 20 μL transferred to 100 μl of Diluent in ELISA plate (0.15 μg/ml-0.075 μg/ml). The lysate-diluent mixture was store at 4° C. overnight on a shaker located in a cold room at speed 5 (gentle swirl).
The lysate-diluent mixture was shaken for 30 minutes at 37° C. The mouse AR antibody, anti-mouse antibody, TMB, and STOP solution were allowed to come to room temperature. The 1×ELISA buffer included in kit was made and loaded in reservoir. Media from the plate was discarded, the ELISA plate was tapped hard on paper towel, and washed 4×200 μl ELISA wash buffer using a plate washer for the first three washes and an eight channel aspirator for the fourth wash to more thoroughly aspirate the solution.
Next, 100 μL/well of mouse AR detection Ab was added; the plate was covered and shaken at 37° C. for 1 hour; media was discarded from the plates, the plates tapped on a paper towel and washed four times with 200 μL ELISA wash buffer with a plate washer for the first three washes and an eight channel aspirator for the fourth wash; 100 μL/well of anti-mouse—HRP conjugated Ab (comes with the kit) was added; the plates wascover and shaken at 37° C. for 30 minutes; the TMB reagent was allowed to come to room temperature; the media from the plate was discarded, the plates tapped on paper towel, and washed four times with 200 μL ELISA wash buffer with a plate washer for the first three washes and an eight channel aspirator for the fourth wash; plates were tapped on paper towl; 100 μL TMB was added to each well and the plate shaken for 2 minutes—while watching color. STOP solution (100 μL) was added when light blue color developed. The plates were shake and read at 450 nm.
Data was analyzed and plotted using GraphPad Prism software. Exemplary compounds of Table 1 were assayed and the data shown below in Table 2. […]

Compound | DC50 [nM] | Dmax Code
CCN(CC1CCN(CCOc2ccc(CN3C(=S)N(c4ccc(C#N)c(C(F)(F)F)c4)C(=O)C3(C)C)cn2)CC1)[C@H]1C[C@H](Oc2ccc3c(c2)C(=O)N(C2CCC(=O)NC2=O)C3=O)C1 (stereo partly shown) [Compound 16, 4-(3-((6-(2-(4-((((1r,3r)-3-((2-(2,6-dioxopiperidin-3-yl)-1,3-dioxoisoindolin-5-yl)oxy)cyclobutyl)(ethyl)amino)methyl)piperidin-1-yl)ethoxy)pyridin-3-yl)methyl)-4,4-dimethyl-5-oxo-2-thioxoimidazolidin-1-yl)-2-(trifluoromethyl)benzonitrile] | 1 to 10 | C (C<50)
Cc1c(C#N)c(-c2ccc(C#N)cc2)c(C)n1Cc1ccc(OCCCN2CCC(CN3CCN(c4ccc5c(c4)C(=O)N(C4CCC(=O)NC4=O)C5=O)CC3)CC2)cc1 (stereo not shown) [Compound 19, 4-(4-cyanophenyl)-1-(4-(3-(4-((4-(2-(2,6-dioxopiperidin-3-yl)-1,3-dioxoisoindolin-5-yl)piperazin-1-yl)methyl)piperidin-1-yl)propoxy)benzyl)-2,5-dimethyl-1H-pyrrole-3-carbonitrile] | ≥ 100 | C (C<50)
Cc1c(C#N)c(-c2ccc(C#N)cc2)c(C)n1Cc1ccc(OCCN2CCC(CN3CCN(c4ccc5c(c4)C(=O)N(C4CCC(=O)NC4=O)C5=O)CC3)CC2)cc1 (stereo not shown) [Compound 20, 4-(4-cyanophenyl)-1-(4-(2-(4-((4-(2-(2,6-dioxopiperidin-3-yl)-1,3-dioxoisoindolin-5-yl)piperazin-1-yl)methyl)piperidin-1-yl)ethoxy)benzyl)-2,5-dimethyl-1H-pyrrole-3-carbonitrile] | ≥ 100 | C (C<50)
Cc1c(C#N)c(-c2ccc(C#N)cc2)c(C)n1Cc1ccc(OCCOCCOCCN2CCC(CN3CCN(c4ccc5c(c4)C(=O)N(C4CCC(=O)NC4=O)C5=O)CC3)CC2)cc1 (stereo not shown) [Compound 21, 4-(4-cyanophenyl)-1-(4-(2-(2-(2-(4-((4-(2-(2,6-dioxopiperidin-3-yl)-1,3-dioxoisoindolin-5-yl)piperazin-1-yl)methyl)piperidin-1-yl)ethoxy)ethoxy)ethoxy)benzyl)-2,5-dimethyl-1H-pyrrole-3-carbonitrile] | ≥ 100 | C (C<50)
CC(C)N(CC1CCN(CCCn2c(=O)n(-c3ccc(C#N)c(C(F)(F)F)c3)c3ccccc32)CC1)[C@H]1C[C@H](Oc2ccc3c(c2)C(=O)N(C2CCC(=O)NC2=O)C3=O)C1 (stereo partly shown) [Compound 23, 4-(3-(3-(4-((((1r,3r)-3-((2-(2,6-dioxopiperidin-3-yl)-1,3-dioxoisoindolin-5-yl)oxy)cyclobutyl)(isopropyl)amino)methyl)piperidin-1-yl)propyl)-2-oxo-2,3-dihydro-1H-benzo[d]imidazol-1-yl)-2-(trifluoromethyl)benzonitrile] | ≥ 100 | C (C<50)
CC(C)N(CC1CCN(CCCCn2c(=O)n(-c3ccc(C#N)c(C(F)(F)F)c3)c3ccccc32)CC1)[C@H]1C[C@H](Oc2ccc3c(c2)C(=O)N(C2CCC(=O)NC2=O)C3=O)C1 (stereo partly shown) [Compound 24, 4-(3-(4-(4-((((1r,3r)-3-((2-(2,6-dioxopiperidin-3-yl)-1,3-dioxoisoindolin-5-yl)oxy)cyclobutyl)(isopropyl)amino)methyl)piperidin-1-yl)butyl)-2-oxo-2,3-dihydro-1H-benzo[d]imidazol-1-yl)-2-(trifluoromethyl)benzonitrile] | ≥ 100 | C (C<50)
CC(C)N(CC1CCN(c2ccc(Cn3c(=O)n(-c4ccc(C#N)c(C(F)(F)F)c4)c4ccccc43)cc2)CC1)[C@H]1C[C@H](Oc2ccc3c(c2)C(=O)N(C2CCC(=O)NC2=O)C3=O)C1 (stereo partly shown) [Compound 25, 4-(3-(4-(4-((((1r,3r)-3-((2-(2,6-dioxopiperidin-3-yl)-1,3-dioxoisoindolin-5-yl)oxy)cyclobutyl)(isopropyl)amino)methyl)piperidin-1-yl)benzyl)-2-oxo-2,3-dihydro-1H-benzo[d]imidazol-1-yl)-2-(trifluoromethyl)benzonitrile] | ≥ 100 | C (C<50)

Further lines, with some results ahead:

DC50 [nM] | Compound | Dmax Code
1 to 10 | CC(C)N(CC1CCN(Cc2ccc(-n3c(=O)n(-c4ccc(C#N)c(C(F)(F)F)c4)c4ccccc43)cc2)CC1)[C@H]1C[C@H](Oc2ccc3c(c2)C(=O)N(C2CCC(=O)NC2=O)C3=O)C1 (stereo partly shown) [Compound 15, 4-(3-(4-((4-((((1r,3r)-3-((2-(2,6-dioxopiperidin-3-yl)-1,3-dioxoisoindolin-5-yl)oxy)cyclobutyl)(isopropyl)amino)methyl)piperidin-1-yl)methyl)phenyl)-2-oxo-2,3-dihydro-1H-benzo[d]imidazol-1-yl)-2-(trifluoromethyl)benzonitrile] | C (C<50)
10 to 100 | CC(C)N(CC1CCN(c2ccc(CCn3c(=O)n(-c4ccc(C#N)c(C(F)(F)F)c4)c4ccccc43)cc2)CC1)[C@H]1C[C@H](Oc2ccc3c(c2)C(=O)N(C2CCC(=O)NC2=O)C3=O)C1 (stereo partly shown) [Compound 17, 4-(3-(4-(4-((((1r,3r)-3-((2-(2,6-dioxopiperidin-3-yl)-1,3-dioxoisoindolin-5-yl)oxy)cyclobutyl)(isopropyl)amino)methyl)piperidin-1-yl)phenethyl)-2-oxo-2,3-dihydro-1H-benzo[d]imidazol-1-yl)-2-(trifluoromethyl)benzonitrile] | C (C<50)
≥ 100 | Cc1c(C#N)c(-c2ccc(C#N)cc2)c(C)n1Cc1ccc(N2CCC(CN3CCN(c4ccc5c(c4)C(=O)N(C4CCC(=O)NC4=O)C5=O)CC3)CC2)cc1 (stereo not shown) [Compound 18, 4-(4-cyanophenyl)-1-(4-(4-((4-(2-(2,6-dioxopiperidin-3-yl)-1,3-dioxoisoindolin-5-yl)piperazin-1-yl)methyl)piperidin-1-yl)benzyl)-2,5-dimethyl-1H-pyrrole-3-carbonitrile] | C (C<50)
≥ 100 | Cc1c(C#N)c(-c2ccc(C#N)cc2)c(C)n1Cc1ccc(OCCOCCN2CCC(CN3CCN(c4ccc5c(c4)C(=O)N(C4CCC(=O)NC4=O)C5=O)CC3)CC2)cc1 (stereo not shown) [Compound 22, 4-(4-cyanophenyl)-1-(4-(2-(2-(4-((4-(2-(2,6-dioxopiperidin-3-yl)-1,3-dioxoisoindolin-5-yl)piperazin-1-yl)methyl)piperidin-1-yl)ethoxy)ethoxy)benzyl)-2,5-dimethyl-1H-pyrrole-3-carbonitrile] | C (C<50)
